Structures can show the parent of a compound that is named as a salt. Where two headings read alike, the source gives them in different places.
Assays:
DPP IV = molecular target: T1, DPP IV (Felis catus, UniProt Q9N2I7); assay: OGTT study in normal cats after 9 mg per cat: DPP IV activity; format: in vivo; settings: 9 mg per cat oral
T1 construct: Blood samples for the determination of this compound and DPP IV activity were collected; from tissue; host or cells: plasma of domestic short hair / purpose-bred cats dosed orally
T1 sequence (Q9N2I7 38-765 limits assumed): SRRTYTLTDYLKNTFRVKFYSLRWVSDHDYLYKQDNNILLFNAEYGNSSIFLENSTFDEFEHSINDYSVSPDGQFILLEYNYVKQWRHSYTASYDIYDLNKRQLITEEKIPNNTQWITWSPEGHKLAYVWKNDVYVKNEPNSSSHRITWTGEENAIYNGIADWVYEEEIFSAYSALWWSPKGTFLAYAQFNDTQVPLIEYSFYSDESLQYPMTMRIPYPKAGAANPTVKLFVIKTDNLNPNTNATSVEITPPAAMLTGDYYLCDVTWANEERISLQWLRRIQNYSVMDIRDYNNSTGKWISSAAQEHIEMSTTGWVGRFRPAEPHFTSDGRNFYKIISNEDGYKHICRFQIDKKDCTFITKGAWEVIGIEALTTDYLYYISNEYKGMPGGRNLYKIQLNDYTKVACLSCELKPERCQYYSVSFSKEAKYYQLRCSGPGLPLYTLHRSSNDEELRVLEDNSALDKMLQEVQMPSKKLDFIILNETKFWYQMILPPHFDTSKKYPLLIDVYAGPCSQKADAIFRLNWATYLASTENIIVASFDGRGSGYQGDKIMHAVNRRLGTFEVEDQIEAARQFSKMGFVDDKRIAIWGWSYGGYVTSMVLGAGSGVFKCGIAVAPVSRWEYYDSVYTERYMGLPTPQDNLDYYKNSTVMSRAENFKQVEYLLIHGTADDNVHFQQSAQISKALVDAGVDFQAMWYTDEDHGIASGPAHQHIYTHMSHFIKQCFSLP
Protocol: An OGTT like in Example 11 was performed in […] beginning 1 h after oral administration of 9 mg 1-[(3-cyano-pyridin-2-yl)methyl]-3-methyl-7-(2-butyn-1-yl)-8-[3-(R)-amino-piperidin-1-yl]-xanthine monohydrochloride or placebo (2 groups with 6 animals each; 3 male and 3 females per group).

plasma DPP IV = molecular target: T2, plasma DPP IV (Rattus norvegicus, UniProt P14740); assay: Plasma DPP IV activity after oral administration, rat; format: in vivo; settings: for inhibition at 1 mg/kg: 1 mg/kg oral; for ED50: oral, read-out: ED50 for inhibition of plasma DPP IV activity
T2 construct: from tissue
T2 sequence (P14740 37-767 limits assumed): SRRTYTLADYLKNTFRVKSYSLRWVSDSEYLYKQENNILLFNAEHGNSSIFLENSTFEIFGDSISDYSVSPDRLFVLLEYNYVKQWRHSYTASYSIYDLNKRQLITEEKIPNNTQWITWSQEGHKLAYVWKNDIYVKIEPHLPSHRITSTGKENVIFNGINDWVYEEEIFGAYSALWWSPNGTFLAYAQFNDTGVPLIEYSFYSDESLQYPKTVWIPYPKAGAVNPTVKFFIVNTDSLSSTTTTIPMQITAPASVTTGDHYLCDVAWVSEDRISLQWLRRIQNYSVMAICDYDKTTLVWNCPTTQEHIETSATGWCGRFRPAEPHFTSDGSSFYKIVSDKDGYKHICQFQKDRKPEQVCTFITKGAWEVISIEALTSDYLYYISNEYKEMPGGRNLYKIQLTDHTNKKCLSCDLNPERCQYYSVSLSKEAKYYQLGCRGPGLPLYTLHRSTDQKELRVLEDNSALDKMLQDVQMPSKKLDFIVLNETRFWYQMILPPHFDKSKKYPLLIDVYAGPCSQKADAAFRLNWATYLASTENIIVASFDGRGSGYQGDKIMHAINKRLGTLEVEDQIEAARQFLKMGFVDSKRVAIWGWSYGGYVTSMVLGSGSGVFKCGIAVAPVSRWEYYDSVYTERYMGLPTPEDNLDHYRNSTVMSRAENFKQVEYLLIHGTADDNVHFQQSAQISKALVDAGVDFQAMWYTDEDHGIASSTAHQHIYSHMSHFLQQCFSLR
Protocol: The effect of 1-[(3-cyano-pyridin-2-yl)methyl]-3-methyl-7-(2-butyn-1-yl)-8-[3-(R)-amino-piperidin-1-yl]-xanthine on plasma DPP IV activity after oral administration was investigated in the rat, the Beagle dog and the Rhesus monkey. These investigations were conducted as described in the following.
Male HanWistar rats (Crl:WI(Han)) were obtained from Charles River (Germany). Animals were fed ad libitum with a standard pelleted diet (Diet No. 3438, Provimi Kliba, Switzerland) and had free access to water. Animals were housed in groups with a 12 h/12 h light/dark cycle (lights out between 6 p.m. and 6 a.m.). The rats were used for the experiment at a body weight of about 260 g. Such freely fed male HanWistar rats (n=5 per group) were administered oral doses of vehicle or 1-[(3-cyano-pyridin-2-yl)methyl]-3-methyl-7-(2-butyn-1-yl)-8-[3-(R)-amino-piperidin-1-yl]-xanthine monohydrochloride at 0.1, 0.3, 1, and 3 mg/kg body weight. Blood samples were drawn from the retrobulbal venous plexus under isoflurane anaesthesia. Blood was collected in EDTA tubes prior to administration of vehicle or 1-[(3-cyano-pyridin-2-yl)methyl]-3-methyl-7-(2-butyn-1-yl)-8-[3-(R)-amino-piperidin-1-yl]-xanthine monohydrochloride and subsequently at 0.5, 1, 2, 3, 4, 7, and 24 hour time points post dose. Plasma was prepared following blood collection and frozen for determination of DPP-IV activity.

[1] = Exploratory single dose PK/PD (1.0/5.0/10.0 mg/kg) in cats: pharmacokinetics; format: in vivo; settings: cat; for AUC(0-inf) / Cmax / MRT / Tmax / half-life: male, domestic short hair, plasma, free base by LC-MS/MS; for half-life: read-out: T1/2, mean (converted)
Protocol: The aim of this study was to investigate the PK/PD behaviour of 1-[(3-cyano-pyridin-2-yl)methyl]-3-methyl-7-(2-butyn-1-yl)-8-[3-(R)-amino-piperidin-1-yl]-xanthine in the cat following a single oral administration of 0, 1, 5 and 10 mg/kg body weight (dosages were based on the free base: 1 mg 1-[(3-cyano-pyridin-2-yl)methyl]-3-methyl-7-(2-butyn-1-yl)-8-[3-(R)-amino-piperidin-1-yl]-xanthine monohydrochloride corresponds to 0.923 mg 1-[(3-cyano-pyridin-2-yl)methyl]-3-methyl-7-(2-butyn-1-yl)-8-[3-(R)-amino-piperidin-1-yl]-xanthine free base).
Twelve clinically healthy male adult domestic short hair cats with a body weight range of 3.5-4.7 kg were used in this study. All animals were treated orally once via a stomach tube. Blood samples for pharmacokinetic and pharmacodynamic (DPP IV activity) investigations were drawn at 0 h (i.e. prior to treatment), 30 min as well as 1, 2, 4, 8, 8.5, 9, 12, 24, 36, 48, 72, 84 and 96 h after treatment. Blood samples for pharmacodynamic (glucagon-like peptide 1 concentrations) investigations were drawn at −16 (i.e. prior to feeding), −15.5, −15 h as well as at 8 h (i.e. prior to feeding), 8.5 and 9 h after treatment.
PK data for 1-[(3-cyano-pyridin-2-yl)methyl]-3-methyl-7-(2-butyn-1-yl)-8-[3-(R)-amino-piperidin-1-yl]-xanthine free base were determined with a validated LC-MS/MS method and are summarized in Table 6.

trypsin = assay: In vitro selectivity, human proteases: trypsin; format: biochemical; settings: up to 100 μM
Text: In order to determine the in vitro selectivity of 1-[(3-cyano-pyridin-2-yl)methyl]-3-methyl-7-(2-butyn-1-yl)-8-[3-(R)-amino-piperidin-1-yl]-xanthine, the ability of this compound to inhibit a number of human proteases was investigated as described in Thomas et al. (2008), J. Pharmacol. Exp. Ther., vol. 325, p. 175-182, chapter In vitro DPP-4 Inhibition Assay, p. 176.

SMILES: CC#CCn1c(N2CCC[C@@H](N)C2)nc2c1c(=O)n(Cc1ncccc1C#N)c(=O)n2C [1-[(3-cyano-pyridin-2-yl)methyl]-3-methyl-7-(2-butyn-1-yl)-8-[3-(R)-amino-piperidin-1-yl]-xanthine monohydrochloride]
- inhibition of DPP IV activity (DPP IV): more than 80%
- inhibition at 1 mg/kg (plasma DPP IV; 7 hours post dose): 86%
- inhibition at 1 mg/kg (plasma DPP IV; 24 hours post dose): 64%
- ED50 (plasma DPP IV; 7 h post dose): 0.4 mg/kg
- ED50 (plasma DPP IV; 24 h post dose): 0.6 mg/kg
- half live ([1]; single oral 1.0, 5.0, 10.0 mg/kg): over 25 hours
- AUC(0-inf) ([1]; 1.0 mg/kg single oral): 1.14 µM·h
- Cmax ([1]; 1.0 mg/kg single oral): 175 nM
- MRT ([1]; 1.0 mg/kg single oral): 12.3 h
- Tmax ([1]; 1.0 mg/kg single oral): 1.33 h
- half-life ([1]; 1.0 mg/kg single oral): 25.4 h
- AUC(0-inf) ([1]; 5.0 mg/kg single oral): 5.48 µM·h
- Cmax ([1]; 5.0 mg/kg single oral): 931 nM
- MRT ([1]; 5.0 mg/kg single oral): 6.76 h
- Tmax ([1]; 5.0 mg/kg single oral): 1.83 h
- half-life ([1]; 5.0 mg/kg single oral): 28.8 h
- AUC(0-inf) ([1]; 10 mg/kg single oral): 26.3 µM·h
- Cmax ([1]; 10 mg/kg single oral): 5470 nM
- MRT ([1]; 10 mg/kg single oral): 5.73 h
- Tmax ([1]; 10 mg/kg single oral): 1.33 h
- half-life ([1]; 10 mg/kg single oral): 37.6 h
- inhibitory effect on trypsin (trypsin): did not exert any inhibitory effect

From patent publication US20140228287A1, “1-[(3-CYANO-PYRIDIN-2-YL)METHYL]-3-METHYL-7-(2-BUTYN-1-YL)-8-[3-(R)-AMINO-PIPERIDIN-1-YL]-AXANTHINE FOR THE TREATMENT OF A METABOLIC DISORDER OF A PREDOMINANTLY CARNIVOROUS NON-HUMAN ANIMAL” (BOEHRINGER INGELHEIM VETMEDICA GMBH, priority 2010, published 2014)
